From the kinase profiling compilation of Christmann-Franck et al. (2016)

target: CLK4 (human) (UniProt Q9HAZ1); assay: radiometric filter-binding kinase assay, Kinase HotSpot; conditions: compound 0.5 µM; ATP 10 µM
Sequence (Q9HAZ1 whole entry, looked up): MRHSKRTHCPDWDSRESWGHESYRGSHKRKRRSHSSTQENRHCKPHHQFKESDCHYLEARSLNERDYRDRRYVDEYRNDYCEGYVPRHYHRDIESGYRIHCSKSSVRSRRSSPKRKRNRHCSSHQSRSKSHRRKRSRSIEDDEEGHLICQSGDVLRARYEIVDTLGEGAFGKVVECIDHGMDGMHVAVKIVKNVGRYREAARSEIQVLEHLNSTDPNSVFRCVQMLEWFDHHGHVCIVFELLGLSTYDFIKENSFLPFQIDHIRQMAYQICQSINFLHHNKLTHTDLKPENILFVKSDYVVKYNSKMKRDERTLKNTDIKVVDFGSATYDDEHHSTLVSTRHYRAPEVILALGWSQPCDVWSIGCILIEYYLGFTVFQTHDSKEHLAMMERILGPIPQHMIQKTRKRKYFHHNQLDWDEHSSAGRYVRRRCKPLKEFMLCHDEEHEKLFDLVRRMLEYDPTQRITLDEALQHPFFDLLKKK

| SMILES | residual activity |
| --- | --- |
| Oc1ccc(-c2nc(-c3ccc(F)cc3)c(-c3ccncc3)[nH]2)cc1 | 106% |
| Cc1ccc(NC(=O)c2ccc(CN3CCN(C)CC3)cc2)cc1Nc1nc(-c2cccnc2)cs1 | 93.3% |
| CC(C)[C@H](CO)Nc1nc(Nc2cccc(Cl)c2)c2ncn(C(C)C)c2n1 | 50.9% |
| COc1ccc(-c2cnc3c(-c4ccsc4)cnn3c2)cc1 | 62% |

target: MST1R (human) (UniProt Q04912); assay: as above; conditions: compound 0.5 µM; ATP 10 µM

| SMILES | residual activity |
| --- | --- |
| Oc1ccc(-c2nc(-c3ccc(F)cc3)c(-c3ccncc3)[nH]2)cc1 | 102% |
| Cc1ccc(NC(=O)c2ccc(CN3CCN(C)CC3)cc2)cc1Nc1nc(-c2cccnc2)cs1 | 104% |
| CC(C)[C@H](CO)Nc1nc(Nc2cccc(Cl)c2)c2ncn(C(C)C)c2n1 | 90.6% |
| COc1ccc(-c2cnc3c(-c4ccsc4)cnn3c2)cc1 | 91.6% |

target: MAPK9 (human) (UniProt P45984); assay: as above; conditions: compound 0.5 µM; ATP 10 µM
Sequence (P45984 whole entry, looked up): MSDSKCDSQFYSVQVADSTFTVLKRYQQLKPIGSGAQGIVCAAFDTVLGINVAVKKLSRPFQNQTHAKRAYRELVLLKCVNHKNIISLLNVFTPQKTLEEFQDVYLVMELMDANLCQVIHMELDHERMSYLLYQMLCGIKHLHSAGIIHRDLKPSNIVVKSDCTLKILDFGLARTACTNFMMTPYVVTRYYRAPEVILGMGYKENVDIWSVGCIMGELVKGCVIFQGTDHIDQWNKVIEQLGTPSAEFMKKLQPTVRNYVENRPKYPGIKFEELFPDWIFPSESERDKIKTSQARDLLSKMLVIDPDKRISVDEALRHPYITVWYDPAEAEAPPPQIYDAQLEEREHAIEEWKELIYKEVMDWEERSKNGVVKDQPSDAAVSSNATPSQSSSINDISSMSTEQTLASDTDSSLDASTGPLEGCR

| SMILES | residual activity |
| --- | --- |
| Oc1ccc(-c2nc(-c3ccc(F)cc3)c(-c3ccncc3)[nH]2)cc1 | 93.4% |
| Cc1ccc(NC(=O)c2ccc(CN3CCN(C)CC3)cc2)cc1Nc1nc(-c2cccnc2)cs1 | 110% |
| CC(C)[C@H](CO)Nc1nc(Nc2cccc(Cl)c2)c2ncn(C(C)C)c2n1 | 102% |
| COc1ccc(-c2cnc3c(-c4ccsc4)cnn3c2)cc1 | 104% |

target: PAK3 (human) (UniProt O75914); assay: as above; conditions: compound 0.5 µM; ATP 10 µM

| SMILES | residual activity |
| --- | --- |
| Oc1ccc(-c2nc(-c3ccc(F)cc3)c(-c3ccncc3)[nH]2)cc1 | 98.7% |
| Cc1ccc(NC(=O)c2ccc(CN3CCN(C)CC3)cc2)cc1Nc1nc(-c2cccnc2)cs1 | 106% |
| CC(C)[C@H](CO)Nc1nc(Nc2cccc(Cl)c2)c2ncn(C(C)C)c2n1 | 94.2% |
| COc1ccc(-c2cnc3c(-c4ccsc4)cnn3c2)cc1 | 96.4% |

target: MAPKAPK2 (human) (UniProt P49137); assay: as above; conditions: compound 0.5 µM; ATP 10 µM
Sequence (P49137 whole entry, looked up): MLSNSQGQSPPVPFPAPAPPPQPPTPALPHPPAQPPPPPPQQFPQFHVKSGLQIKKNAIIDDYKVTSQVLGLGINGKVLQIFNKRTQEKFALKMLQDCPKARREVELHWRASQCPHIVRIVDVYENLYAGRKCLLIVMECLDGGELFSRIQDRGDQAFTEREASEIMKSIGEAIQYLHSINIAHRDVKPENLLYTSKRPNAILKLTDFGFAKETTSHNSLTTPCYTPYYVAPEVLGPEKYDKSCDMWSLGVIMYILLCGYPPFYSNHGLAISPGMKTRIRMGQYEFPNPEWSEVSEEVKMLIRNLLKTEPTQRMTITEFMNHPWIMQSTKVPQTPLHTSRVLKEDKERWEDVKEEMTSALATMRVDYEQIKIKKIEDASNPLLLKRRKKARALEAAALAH

| SMILES | residual activity |
| --- | --- |
| Oc1ccc(-c2nc(-c3ccc(F)cc3)c(-c3ccncc3)[nH]2)cc1 | 99.2% |
| Cc1ccc(NC(=O)c2ccc(CN3CCN(C)CC3)cc2)cc1Nc1nc(-c2cccnc2)cs1 | 102% |
| CC(C)[C@H](CO)Nc1nc(Nc2cccc(Cl)c2)c2ncn(C(C)C)c2n1 | 102% |
| COc1ccc(-c2cnc3c(-c4ccsc4)cnn3c2)cc1 | 95.8% |

target: TSSK1B (human) (UniProt Q9BXA7); assay: as above; conditions: compound 0.5 µM; ATP 10 µM

| SMILES | residual activity |
| --- | --- |
| Oc1ccc(-c2nc(-c3ccc(F)cc3)c(-c3ccncc3)[nH]2)cc1 | 104% |
| Cc1ccc(NC(=O)c2ccc(CN3CCN(C)CC3)cc2)cc1Nc1nc(-c2cccnc2)cs1 | 100% |
| CC(C)[C@H](CO)Nc1nc(Nc2cccc(Cl)c2)c2ncn(C(C)C)c2n1 | 102% |
| COc1ccc(-c2cnc3c(-c4ccsc4)cnn3c2)cc1 | 99.1% |

target: NTRK3 (human) (UniProt Q16288); assay: as above; conditions: compound 0.5 µM; ATP 10 µM

| SMILES | residual activity |
| --- | --- |
| Oc1ccc(-c2nc(-c3ccc(F)cc3)c(-c3ccncc3)[nH]2)cc1 | 101% |
| Cc1ccc(NC(=O)c2ccc(CN3CCN(C)CC3)cc2)cc1Nc1nc(-c2cccnc2)cs1 | 94.1% |
| CC(C)[C@H](CO)Nc1nc(Nc2cccc(Cl)c2)c2ncn(C(C)C)c2n1 | 15% |
| COc1ccc(-c2cnc3c(-c4ccsc4)cnn3c2)cc1 | 49.8% |

target: SIK2 (human) (UniProt Q9H0K1); assay: as above; conditions: compound 0.5 µM; ATP 10 µM

| SMILES | residual activity |
| --- | --- |
| Oc1ccc(-c2nc(-c3ccc(F)cc3)c(-c3ccncc3)[nH]2)cc1 | 83.4% |
| Cc1ccc(NC(=O)c2ccc(CN3CCN(C)CC3)cc2)cc1Nc1nc(-c2cccnc2)cs1 | 99.7% |
| CC(C)[C@H](CO)Nc1nc(Nc2cccc(Cl)c2)c2ncn(C(C)C)c2n1 | 92.2% |
| COc1ccc(-c2cnc3c(-c4ccsc4)cnn3c2)cc1 | 79.4% |

target: RET (human) (UniProt P07949); assay: as above; conditions: compound 0.5 µM; ATP 10 µM

| SMILES | residual activity |
| --- | --- |
| Oc1ccc(-c2nc(-c3ccc(F)cc3)c(-c3ccncc3)[nH]2)cc1 | 89.3% |
| Cc1ccc(NC(=O)c2ccc(CN3CCN(C)CC3)cc2)cc1Nc1nc(-c2cccnc2)cs1 | 96.4% |
| CC(C)[C@H](CO)Nc1nc(Nc2cccc(Cl)c2)c2ncn(C(C)C)c2n1 | 81.4% |
| COc1ccc(-c2cnc3c(-c4ccsc4)cnn3c2)cc1 | 92% |

target: BRSK1 (human) (UniProt Q8TDC3); assay: as above; conditions: compound 0.5 µM; ATP 10 µM
Sequence (Q8TDC3 whole entry, looked up): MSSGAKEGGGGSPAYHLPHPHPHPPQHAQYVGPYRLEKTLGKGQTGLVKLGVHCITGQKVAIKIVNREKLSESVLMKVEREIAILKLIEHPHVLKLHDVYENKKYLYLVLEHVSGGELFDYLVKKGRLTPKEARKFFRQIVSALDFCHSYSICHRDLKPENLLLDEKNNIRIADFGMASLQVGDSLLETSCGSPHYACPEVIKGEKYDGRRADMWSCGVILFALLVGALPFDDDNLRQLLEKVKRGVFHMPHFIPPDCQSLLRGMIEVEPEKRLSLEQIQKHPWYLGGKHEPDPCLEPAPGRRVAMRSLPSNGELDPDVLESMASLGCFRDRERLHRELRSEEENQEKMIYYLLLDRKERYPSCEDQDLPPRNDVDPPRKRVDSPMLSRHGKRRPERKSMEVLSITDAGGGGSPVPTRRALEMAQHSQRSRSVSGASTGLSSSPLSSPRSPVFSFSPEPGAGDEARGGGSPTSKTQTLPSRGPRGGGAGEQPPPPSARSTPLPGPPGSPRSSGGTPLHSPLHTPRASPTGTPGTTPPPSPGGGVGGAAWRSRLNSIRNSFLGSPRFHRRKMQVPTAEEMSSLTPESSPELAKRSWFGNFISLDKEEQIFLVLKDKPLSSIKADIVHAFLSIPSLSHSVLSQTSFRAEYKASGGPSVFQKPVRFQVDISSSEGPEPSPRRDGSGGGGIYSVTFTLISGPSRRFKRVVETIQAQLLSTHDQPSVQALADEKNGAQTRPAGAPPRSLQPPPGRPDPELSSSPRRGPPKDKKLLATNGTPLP

| SMILES | residual activity |
| --- | --- |
| Oc1ccc(-c2nc(-c3ccc(F)cc3)c(-c3ccncc3)[nH]2)cc1 | 101% |
| Cc1ccc(NC(=O)c2ccc(CN3CCN(C)CC3)cc2)cc1Nc1nc(-c2cccnc2)cs1 | 102% |
| CC(C)[C@H](CO)Nc1nc(Nc2cccc(Cl)c2)c2ncn(C(C)C)c2n1 | 100% |
| COc1ccc(-c2cnc3c(-c4ccsc4)cnn3c2)cc1 | 81.5% |

target: MAP2K2 (human) (UniProt P36507); assay: as above; conditions: compound 0.5 µM; ATP 10 µM

| SMILES | residual activity |
| --- | --- |
| Oc1ccc(-c2nc(-c3ccc(F)cc3)c(-c3ccncc3)[nH]2)cc1 | 101% |
| Cc1ccc(NC(=O)c2ccc(CN3CCN(C)CC3)cc2)cc1Nc1nc(-c2cccnc2)cs1 | 114% |
| CC(C)[C@H](CO)Nc1nc(Nc2cccc(Cl)c2)c2ncn(C(C)C)c2n1 | 104% |
| COc1ccc(-c2cnc3c(-c4ccsc4)cnn3c2)cc1 | 95.5% |

target: DYRK1B (human) (UniProt Q9Y463); assay: as above; conditions: compound 0.5 µM; ATP 10 µM

| SMILES | residual activity |
| --- | --- |
| Oc1ccc(-c2nc(-c3ccc(F)cc3)c(-c3ccncc3)[nH]2)cc1 | 105% |
| Cc1ccc(NC(=O)c2ccc(CN3CCN(C)CC3)cc2)cc1Nc1nc(-c2cccnc2)cs1 | 95.7% |
| CC(C)[C@H](CO)Nc1nc(Nc2cccc(Cl)c2)c2ncn(C(C)C)c2n1 | 49.9% |
| COc1ccc(-c2cnc3c(-c4ccsc4)cnn3c2)cc1 | 78.9% |

target: EPHB3 (human) (UniProt P54753); assay: as above; conditions: compound 0.5 µM; ATP 10 µM

| SMILES | residual activity |
| --- | --- |
| Oc1ccc(-c2nc(-c3ccc(F)cc3)c(-c3ccncc3)[nH]2)cc1 | 97.7% |
| Cc1ccc(NC(=O)c2ccc(CN3CCN(C)CC3)cc2)cc1Nc1nc(-c2cccnc2)cs1 | 80.9% |
| CC(C)[C@H](CO)Nc1nc(Nc2cccc(Cl)c2)c2ncn(C(C)C)c2n1 | 102% |
| COc1ccc(-c2cnc3c(-c4ccsc4)cnn3c2)cc1 | 99.4% |

target: DCLK2 (human) (UniProt Q8N568); assay: as above; conditions: compound 0.5 µM; ATP 10 µM
Sequence (Q8N568 whole entry, looked up): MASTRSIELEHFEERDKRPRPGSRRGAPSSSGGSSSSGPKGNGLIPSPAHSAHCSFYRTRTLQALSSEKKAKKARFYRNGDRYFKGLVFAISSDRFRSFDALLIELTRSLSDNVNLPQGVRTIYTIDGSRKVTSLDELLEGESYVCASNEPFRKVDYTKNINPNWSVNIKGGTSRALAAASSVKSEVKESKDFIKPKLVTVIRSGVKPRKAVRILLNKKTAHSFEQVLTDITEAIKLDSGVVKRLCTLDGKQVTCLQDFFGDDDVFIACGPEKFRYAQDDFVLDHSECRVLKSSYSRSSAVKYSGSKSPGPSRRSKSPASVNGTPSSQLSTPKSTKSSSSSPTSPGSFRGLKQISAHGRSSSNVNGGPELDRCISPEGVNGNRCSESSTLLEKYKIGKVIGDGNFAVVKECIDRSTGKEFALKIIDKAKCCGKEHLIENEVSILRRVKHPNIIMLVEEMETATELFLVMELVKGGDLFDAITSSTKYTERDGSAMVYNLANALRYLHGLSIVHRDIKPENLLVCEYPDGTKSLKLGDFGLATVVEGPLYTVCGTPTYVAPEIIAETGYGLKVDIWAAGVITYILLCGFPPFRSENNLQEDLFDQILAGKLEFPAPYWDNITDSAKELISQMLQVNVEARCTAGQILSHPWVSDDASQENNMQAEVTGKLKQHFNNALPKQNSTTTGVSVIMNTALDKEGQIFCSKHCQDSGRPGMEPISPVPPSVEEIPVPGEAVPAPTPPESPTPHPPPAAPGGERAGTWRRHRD

| SMILES | residual activity |
| --- | --- |
| Oc1ccc(-c2nc(-c3ccc(F)cc3)c(-c3ccncc3)[nH]2)cc1 | 102% |
| Cc1ccc(NC(=O)c2ccc(CN3CCN(C)CC3)cc2)cc1Nc1nc(-c2cccnc2)cs1 | 102% |
| CC(C)[C@H](CO)Nc1nc(Nc2cccc(Cl)c2)c2ncn(C(C)C)c2n1 | 100% |
| COc1ccc(-c2cnc3c(-c4ccsc4)cnn3c2)cc1 | 97.5% |

target: MAPK12 (human) (UniProt P53778); assay: as above; conditions: compound 0.5 µM; ATP 10 µM

| SMILES | residual activity |
| --- | --- |
| Oc1ccc(-c2nc(-c3ccc(F)cc3)c(-c3ccncc3)[nH]2)cc1 | 102% |
| Cc1ccc(NC(=O)c2ccc(CN3CCN(C)CC3)cc2)cc1Nc1nc(-c2cccnc2)cs1 | 96.9% |
| CC(C)[C@H](CO)Nc1nc(Nc2cccc(Cl)c2)c2ncn(C(C)C)c2n1 | 106% |
| COc1ccc(-c2cnc3c(-c4ccsc4)cnn3c2)cc1 | 94.8% |

target: NEK6 (human) (UniProt Q9HC98); assay: as above; conditions: compound 0.5 µM; ATP 10 µM
Sequence (Q9HC98 whole entry, looked up): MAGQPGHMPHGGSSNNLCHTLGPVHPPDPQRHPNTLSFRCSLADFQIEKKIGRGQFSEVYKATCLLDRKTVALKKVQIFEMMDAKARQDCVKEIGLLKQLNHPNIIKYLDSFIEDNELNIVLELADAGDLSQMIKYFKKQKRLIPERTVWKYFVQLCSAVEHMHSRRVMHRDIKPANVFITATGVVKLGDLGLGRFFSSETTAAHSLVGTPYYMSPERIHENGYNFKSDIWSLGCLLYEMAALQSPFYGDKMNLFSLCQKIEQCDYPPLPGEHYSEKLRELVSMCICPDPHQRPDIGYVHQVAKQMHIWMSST

| SMILES | residual activity |
| --- | --- |
| Oc1ccc(-c2nc(-c3ccc(F)cc3)c(-c3ccncc3)[nH]2)cc1 | 99.4% |
| Cc1ccc(NC(=O)c2ccc(CN3CCN(C)CC3)cc2)cc1Nc1nc(-c2cccnc2)cs1 | 91.3% |
| CC(C)[C@H](CO)Nc1nc(Nc2cccc(Cl)c2)c2ncn(C(C)C)c2n1 | 91.3% |
| COc1ccc(-c2cnc3c(-c4ccsc4)cnn3c2)cc1 | 99.3% |

target: MET (human) (UniProt P08581); assay: as above; conditions: compound 0.5 µM; ATP 10 µM

| SMILES | residual activity |
| --- | --- |
| Oc1ccc(-c2nc(-c3ccc(F)cc3)c(-c3ccncc3)[nH]2)cc1 | 94.4% |
| Cc1ccc(NC(=O)c2ccc(CN3CCN(C)CC3)cc2)cc1Nc1nc(-c2cccnc2)cs1 | 104% |
| CC(C)[C@H](CO)Nc1nc(Nc2cccc(Cl)c2)c2ncn(C(C)C)c2n1 | 96.2% |
| COc1ccc(-c2cnc3c(-c4ccsc4)cnn3c2)cc1 | 86.3% |

target: NEK2 (human) (UniProt P51955); assay: as above; conditions: compound 0.5 µM; ATP 10 µM
Sequence (P51955 whole entry, looked up): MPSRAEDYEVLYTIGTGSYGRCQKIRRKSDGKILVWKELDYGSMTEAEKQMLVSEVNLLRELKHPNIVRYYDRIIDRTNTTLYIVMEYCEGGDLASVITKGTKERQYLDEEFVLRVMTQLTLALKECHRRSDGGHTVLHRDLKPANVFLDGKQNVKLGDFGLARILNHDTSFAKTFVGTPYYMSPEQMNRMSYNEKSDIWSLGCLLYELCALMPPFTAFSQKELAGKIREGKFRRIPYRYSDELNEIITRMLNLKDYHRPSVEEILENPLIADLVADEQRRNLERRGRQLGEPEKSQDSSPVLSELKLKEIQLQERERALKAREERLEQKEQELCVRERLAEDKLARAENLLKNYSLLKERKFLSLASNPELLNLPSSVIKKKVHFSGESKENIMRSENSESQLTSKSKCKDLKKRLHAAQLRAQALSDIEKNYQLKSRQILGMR

| SMILES | residual activity |
| --- | --- |
| Oc1ccc(-c2nc(-c3ccc(F)cc3)c(-c3ccncc3)[nH]2)cc1 | 101% |
| Cc1ccc(NC(=O)c2ccc(CN3CCN(C)CC3)cc2)cc1Nc1nc(-c2cccnc2)cs1 | 96.7% |
| CC(C)[C@H](CO)Nc1nc(Nc2cccc(Cl)c2)c2ncn(C(C)C)c2n1 | 102% |
| COc1ccc(-c2cnc3c(-c4ccsc4)cnn3c2)cc1 | 90.2% |

target: EPHA1 (human) (UniProt P21709); assay: as above; conditions: compound 0.5 µM; ATP 10 µM
Sequence (P21709 whole entry, looked up): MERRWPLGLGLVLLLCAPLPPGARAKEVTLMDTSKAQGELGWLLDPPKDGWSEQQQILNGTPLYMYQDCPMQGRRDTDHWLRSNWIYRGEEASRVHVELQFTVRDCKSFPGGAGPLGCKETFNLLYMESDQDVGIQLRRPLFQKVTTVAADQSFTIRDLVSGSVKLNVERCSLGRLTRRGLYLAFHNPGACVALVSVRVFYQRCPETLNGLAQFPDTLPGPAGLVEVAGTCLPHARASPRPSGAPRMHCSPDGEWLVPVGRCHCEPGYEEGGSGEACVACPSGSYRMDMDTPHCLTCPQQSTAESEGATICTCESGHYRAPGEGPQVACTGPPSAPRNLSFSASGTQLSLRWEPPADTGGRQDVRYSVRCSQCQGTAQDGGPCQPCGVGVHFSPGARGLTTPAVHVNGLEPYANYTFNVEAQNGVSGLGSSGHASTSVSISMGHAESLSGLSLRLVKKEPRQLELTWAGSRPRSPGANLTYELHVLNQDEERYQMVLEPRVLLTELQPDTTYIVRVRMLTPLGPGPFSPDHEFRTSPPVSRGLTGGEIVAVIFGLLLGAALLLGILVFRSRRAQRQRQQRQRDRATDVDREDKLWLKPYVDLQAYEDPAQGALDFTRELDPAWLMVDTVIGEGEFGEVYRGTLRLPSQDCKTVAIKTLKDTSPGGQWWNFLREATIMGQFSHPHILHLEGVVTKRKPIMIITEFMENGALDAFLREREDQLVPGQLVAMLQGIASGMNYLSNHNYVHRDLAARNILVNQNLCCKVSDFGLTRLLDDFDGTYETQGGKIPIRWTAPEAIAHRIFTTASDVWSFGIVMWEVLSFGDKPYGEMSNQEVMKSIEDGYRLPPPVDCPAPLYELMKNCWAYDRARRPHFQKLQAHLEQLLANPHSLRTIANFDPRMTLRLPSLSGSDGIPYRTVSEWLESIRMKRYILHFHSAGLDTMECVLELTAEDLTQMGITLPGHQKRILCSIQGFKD

| SMILES | residual activity |
| --- | --- |
| Oc1ccc(-c2nc(-c3ccc(F)cc3)c(-c3ccncc3)[nH]2)cc1 | 94.4% |
| Cc1ccc(NC(=O)c2ccc(CN3CCN(C)CC3)cc2)cc1Nc1nc(-c2cccnc2)cs1 | 96.5% |
| CC(C)[C@H](CO)Nc1nc(Nc2cccc(Cl)c2)c2ncn(C(C)C)c2n1 | 98.3% |
| COc1ccc(-c2cnc3c(-c4ccsc4)cnn3c2)cc1 | 91.5% |

target: CSNK1G1 (human) (UniProt Q9HCP0); assay: as above; conditions: compound 0.5 µM; ATP 10 µM
Sequence (Q9HCP0 whole entry, looked up): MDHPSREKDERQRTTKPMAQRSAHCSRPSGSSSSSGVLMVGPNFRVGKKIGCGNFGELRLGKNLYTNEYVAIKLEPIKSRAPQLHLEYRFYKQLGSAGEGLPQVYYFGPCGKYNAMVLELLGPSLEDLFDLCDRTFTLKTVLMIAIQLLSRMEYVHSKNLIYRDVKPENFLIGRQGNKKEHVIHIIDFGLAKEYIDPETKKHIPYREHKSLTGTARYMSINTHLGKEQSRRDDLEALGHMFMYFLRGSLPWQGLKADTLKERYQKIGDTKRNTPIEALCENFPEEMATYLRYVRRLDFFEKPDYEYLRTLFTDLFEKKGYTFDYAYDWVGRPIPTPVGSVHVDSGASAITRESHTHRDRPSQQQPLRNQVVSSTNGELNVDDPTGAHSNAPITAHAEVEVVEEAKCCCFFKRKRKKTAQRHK

| SMILES | residual activity |
| --- | --- |
| Oc1ccc(-c2nc(-c3ccc(F)cc3)c(-c3ccncc3)[nH]2)cc1 | 97.3% |
| Cc1ccc(NC(=O)c2ccc(CN3CCN(C)CC3)cc2)cc1Nc1nc(-c2cccnc2)cs1 | 92.4% |
| CC(C)[C@H](CO)Nc1nc(Nc2cccc(Cl)c2)c2ncn(C(C)C)c2n1 | 28% |
| COc1ccc(-c2cnc3c(-c4ccsc4)cnn3c2)cc1 | 90.3% |

target: IKBKB (human) (UniProt O14920); assay: as above; conditions: compound 0.5 µM; ATP 10 µM

| SMILES | residual activity |
| --- | --- |
| Oc1ccc(-c2nc(-c3ccc(F)cc3)c(-c3ccncc3)[nH]2)cc1 | 110% |
| Cc1ccc(NC(=O)c2ccc(CN3CCN(C)CC3)cc2)cc1Nc1nc(-c2cccnc2)cs1 | 97.8% |
| CC(C)[C@H](CO)Nc1nc(Nc2cccc(Cl)c2)c2ncn(C(C)C)c2n1 | 107% |
| COc1ccc(-c2cnc3c(-c4ccsc4)cnn3c2)cc1 | 99.6% |
